Data from patent US12097241B2, “Methods of treating kidney failure, and/or improving or stablizing renal function using modified relaxin polypeptides” (BRISTOL-MYERS SQUIBB COMPANY, priority 2017, dated 2024).

Target: T1, human RXFP1 receptor (Homo sapiens, UniProt Q9HBX9)
T1 construct: expressed in transfected cells
T1 sequence (Q9HBX9 1-757): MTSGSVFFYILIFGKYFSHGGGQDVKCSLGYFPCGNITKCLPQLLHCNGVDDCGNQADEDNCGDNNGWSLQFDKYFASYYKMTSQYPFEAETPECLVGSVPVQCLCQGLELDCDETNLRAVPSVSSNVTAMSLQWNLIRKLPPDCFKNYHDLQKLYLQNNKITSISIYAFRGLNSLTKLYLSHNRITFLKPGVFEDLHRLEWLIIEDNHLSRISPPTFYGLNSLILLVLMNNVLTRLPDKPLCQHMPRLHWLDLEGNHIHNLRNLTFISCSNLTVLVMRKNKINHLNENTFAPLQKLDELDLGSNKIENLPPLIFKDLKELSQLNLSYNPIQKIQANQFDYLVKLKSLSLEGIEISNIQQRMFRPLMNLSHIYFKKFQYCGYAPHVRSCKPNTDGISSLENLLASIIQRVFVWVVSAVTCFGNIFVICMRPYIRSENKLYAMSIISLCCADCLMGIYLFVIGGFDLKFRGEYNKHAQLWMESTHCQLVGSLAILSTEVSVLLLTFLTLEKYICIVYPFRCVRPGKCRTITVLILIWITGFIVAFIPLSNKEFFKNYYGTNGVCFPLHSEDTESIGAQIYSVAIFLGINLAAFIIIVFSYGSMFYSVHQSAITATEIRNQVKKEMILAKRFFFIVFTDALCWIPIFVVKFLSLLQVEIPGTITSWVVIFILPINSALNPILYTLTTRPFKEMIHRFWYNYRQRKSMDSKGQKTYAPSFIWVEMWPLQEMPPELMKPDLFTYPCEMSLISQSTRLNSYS
Experiment: Intracellular cAMP accumulation assay
Type: cell-based

| SMILES | EC50 [pM] |
| --- | --- |
| CC[C@H](C)[C@@H]1NC(=O)[C@H](C)NC(=O)[C@H]([C@@H](C)CC)NC(=O)[C@H](CCC(N)=O)NC(=O)[C@H](C)NC(=O)[C@H](CCCNC(=N)N)NC(=O)[C@H](C(C)C)NC(=O)[C@H](CC(C)C)NC(=O)[C@H](CCC(=O)O)NC(=O)[C@H](CCCNC(=N)N)NC(=O)CNC(=O)[C@@H](NC(=O)[C@H](CC(C)C)NC(=O)[C@H](CCCCN)NC(=O)[C@@H](NC(=O)[C@@H](NC(=O)[C@H](CCC(=O)O)NC(=O)[C@H](CCC(=O)O)NC(=O)[C@H](CCSC)NC(=O)[C@H](Cc2c[nH]c3ccccc23)NC(=O)[C@H](CO)NC(=O)[C@H](C)N)C(C)C)[C@@H](C)CC)CSSC[C@@H]2NC(=O)[C@@H](NC(=O)[C@H](CCCCN)NC(=O)[C@H](CC(N)=O)NC(=O)[C@H](C)NC(=O)[C@H](CC(C)C)NC(=O)[C@H](C)NC(=O)[C@H](CO)NC(=O)[C@H](Cc3ccc(O)cc3)NC(=O)[C@H](CC(C)C)NC(=O)[C@@H](N)Cc3ccc(C(C)=NOCCNC(=O)[C@H](CCCCN)NC(=O)[C@H](CCCCN)NC(=O)[C@H](CO)NC(=O)[C@H](C)NC(=O)CNC(=O)[C@H](CO)NC(=O)[C@H](C)NC(=O)CNC(=O)CC[C@H](NC(=O)CCCCCCCCCCCCC(=O)O)C(=O)O)cc3)CSSC[C@H](NC(=O)CNC(=O)[C@H](C(C)C)NC(=O)[C@H](Cc3c[nH]cn3)NC2=O)C(=O)N[C@@H]([C@@H](C)O)C(=O)N[C@@H](CCCCN)C(=O)N[C@@H](CCCNC(=N)N)C(=O)N[C@@H](CO)C(=O)N[C@@H](CC(C)C)C(=O)N[C@@H](C)C(=O)N[C@@H](CCCNC(=N)N)C(=O)N[C@@H](Cc2ccccc2)C(=O)N[C@H](C(=O)O)CSSC[C@@H](C(=O)NCC(=O)N[C@@H](CCSC)C(=O)N[C@@H](CO)C(=O)N[C@H](C(=O)N[C@@H](Cc2c[nH]c3ccccc23)C(=O)N[C@@H](CO)C(=O)O)[C@@H](C)O)NC1=O [AQ1-KKSAGSAG-Glu^γ-C13-COOH] | 270 |
| CCCCCCCCCCCCCCCC(=O)N[C@@H](CCC(=O)N[C@@H](CCC(=O)O)C(=O)N[C@@H](CCC(=O)O)C(=O)N[C@@H](CCC(=O)O)C(=O)N[C@@H](CCC(=O)O)C(=O)N1CCC[C@H]1C(=O)N[C@@H](CCC(=O)O)C(=O)N[C@@H](CCC(=O)O)C(=O)N[C@@H](CCC(=O)O)C(=O)N[C@@H](CCC(=O)O)C(=O)N1CCC[C@H]1C(=O)N[C@@H](CCC(=O)O)C(=O)N[C@@H](CCC(=O)O)C(=O)N[C@@H](CCC(=O)O)C(=O)N[C@@H](CCC(=O)O)C(=O)N1CCC[C@H]1C(=O)N[C@@H](CCC(=O)O)C(=O)N[C@@H](CCC(=O)O)C(=O)N[C@@H](CCC(=O)O)C(=O)N[C@@H](CCC(=O)O)C(=O)NCCON=C(C)c1ccc(C[C@H](N)C(=O)N[C@@H](CC(C)C)C(=O)N[C@@H](Cc2ccc(O)cc2)C(=O)N[C@@H](CO)C(=O)N[C@@H](C)C(=O)N[C@@H](CC(C)C)C(=O)N[C@@H](C)C(=O)N[C@@H](CC(N)=O)C(=O)N[C@@H](CCCCN)C(=O)N[C@H]2CSSC[C@@H]3NC(=O)CNC(=O)[C@H](C(C)C)NC(=O)[C@H](Cc4c[nH]cn4)NC(=O)[C@H](CSSC[C@H](NC(=O)[C@H](CC(C)C)NC(=O)[C@H](CCCCN)NC(=O)[C@@H](NC(=O)[C@@H](NC(=O)[C@H](CCC(=O)O)NC(=O)[C@H](CCC(=O)O)NC(=O)[C@H](CCSC)NC(=O)[C@H](Cc4c[nH]c5ccccc45)NC(=O)[C@H](CO)NC(=O)[C@H](C)N)C(C)C)[C@@H](C)CC)C(=O)NCC(=O)N[C@@H](CCCNC(=N)N)C(=O)N[C@@H](CCC(=O)O)C(=O)N[C@@H](CC(C)C)C(=O)N[C@@H](C(C)C)C(=O)N[C@@H](CCCNC(=N)N)C(=O)N[C@@H](C)C(=O)N[C@@H](CCC(N)=O)C(=O)N[C@@H]([C@@H](C)CC)C(=O)N[C@@H](C)C(=O)N[C@@H]([C@@H](C)CC)C(=O)N[C@H](C(=O)NCC(=O)N[C@@H](CCSC)C(=O)N[C@@H](CO)C(=O)N[C@H](C(=O)N[C@@H](Cc4c[nH]c5ccccc45)C(=O)N[C@@H](CO)C(=O)O)[C@@H](C)O)CSSC[C@@H](C(=O)O)NC(=O)[C@H](Cc4ccccc4)NC(=O)[C@H](CCCNC(=N)N)NC(=O)[C@H](C)NC(=O)[C@H](CC(C)C)NC(=O)[C@H](CO)NC(=O)[C@H](CCCNC(=N)N)NC(=O)[C@H](CCCCN)NC(=O)[C@H]([C@@H](C)O)NC3=O)NC2=O)cc1)C(=O)O [AQ1-EEEEPEEEEPEEEEPEEEE-Glu^γ-C15-CH3] | 340 |
| CC[C@H](C)[C@@H]1NC(=O)[C@H](C)NC(=O)[C@H]([C@@H](C)CC)NC(=O)[C@H](CCC(N)=O)NC(=O)[C@H](C)NC(=O)[C@H](CCCNC(=N)N)NC(=O)[C@H](C(C)C)NC(=O)[C@H](CC(C)C)NC(=O)[C@H](CCC(=O)O)NC(=O)[C@H](CCCNC(=N)N)NC(=O)CNC(=O)[C@@H](NC(=O)[C@H](CC(C)C)NC(=O)[C@H](CCCCN)NC(=O)[C@@H](NC(=O)[C@@H](NC(=O)[C@H](CCC(=O)O)NC(=O)[C@H](CCC(=O)O)NC(=O)[C@H](CCSC)NC(=O)[C@H](Cc2c[nH]c3ccccc23)NC(=O)[C@H](CO)NC(=O)[C@H](C)N)C(C)C)[C@@H](C)CC)CSSC[C@@H]2NC(=O)[C@@H](NC(=O)[C@H](CCCCN)NC(=O)[C@H](CC(N)=O)NC(=O)[C@H](C)NC(=O)[C@H](CC(C)C)NC(=O)[C@H](C)NC(=O)[C@H](CO)NC(=O)[C@H](Cc3ccc(O)cc3)NC(=O)[C@H](CC(C)C)NC(=O)[C@@H](N)Cc3ccc(/C(C)=N/OCCNC(=O)CN(C)C(=O)CN(C)C(=O)CN(C)C(=O)CN(C)C(=O)[C@H](CO)NC(=O)CN(C)C(=O)CN(C)C(=O)CN(C)C(=O)CN(C)C(=O)CC[C@H](NC(=O)CCCCCCCCCCCCC(=O)O)C(=O)O)cc3)CSSC[C@H](NC(=O)CNC(=O)[C@H](C(C)C)NC(=O)[C@H](Cc3c[nH]cn3)NC2=O)C(=O)N[C@@H]([C@@H](C)O)C(=O)N[C@@H](CCCCN)C(=O)N[C@@H](CCCNC(=N)N)C(=O)N[C@@H](CO)C(=O)N[C@@H](CC(C)C)C(=O)N[C@@H](C)C(=O)N[C@@H](CCCNC(=N)N)C(=O)N[C@@H](Cc2ccccc2)C(=O)N[C@H](C(=O)O)CSSC[C@@H](C(=O)NCC(=O)N[C@@H](CCSC)C(=O)N[C@@H](CO)C(=O)N[C@H](C(=O)N[C@@H](Cc2c[nH]c3ccccc23)C(=O)N[C@@H](CO)C(=O)O)[C@@H](C)O)NC1=O | 390 |
